According to PMC3433420 (PLoS ONE, 2012):
pKd: −log10 of the molar value. Like-named read-outs stand apart in the source and are kept apart here. Residues, ends and D or L forms follow the SMILES beside them.

Tests used:
[1] = target: T1, HSH2D SH2 domain (Homo sapiens, UniProt Q96JZ2); experiment: FP saturation binding assay
T1 sequence (Q96JZ2 34-125 limits assumed): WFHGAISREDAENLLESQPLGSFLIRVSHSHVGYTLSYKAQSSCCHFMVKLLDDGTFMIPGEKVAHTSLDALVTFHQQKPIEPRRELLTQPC

[2] = target: T2, GRAP2 SH2 domain (Homo sapiens, UniProt O75791); experiment: FP saturation binding assay; settings: for share of the ErbB1 binding FE for GRAP2: free energy from FP KDs as percentage of total receptor recruitment (Figure S16)
T2 sequence (O75791 58-149 limits assumed): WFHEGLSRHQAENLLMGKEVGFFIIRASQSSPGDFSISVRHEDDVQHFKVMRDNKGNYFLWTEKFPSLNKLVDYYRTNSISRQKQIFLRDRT

[3] = target: GRB2 SH2 domain (Homo sapiens, UniProt P62993); experiment: FP saturation binding assay; settings: for share of the ErbB1 binding FE for GRB2: free energy from FP KDs as percentage of total receptor recruitment (Figure S16)
GRB2 SH2 domain, sequence (P62993 60-152 limits assumed): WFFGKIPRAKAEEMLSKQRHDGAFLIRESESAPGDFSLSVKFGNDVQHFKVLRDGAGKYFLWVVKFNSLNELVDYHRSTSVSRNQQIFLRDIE

[4] = target: T3, SH2D1B SH2 domain (Homo sapiens, UniProt O14796); experiment: FP saturation binding assay
T3 sequence (O14796 5-101 limits assumed): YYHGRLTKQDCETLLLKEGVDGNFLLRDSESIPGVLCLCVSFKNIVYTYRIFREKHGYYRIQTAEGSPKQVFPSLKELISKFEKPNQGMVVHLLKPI

[5] = target: T4, PTPN11-N SH2 domain (Homo sapiens, UniProt Q06124); experiment: FP saturation binding assay
T4 sequence (Q06124 6-102 limits assumed): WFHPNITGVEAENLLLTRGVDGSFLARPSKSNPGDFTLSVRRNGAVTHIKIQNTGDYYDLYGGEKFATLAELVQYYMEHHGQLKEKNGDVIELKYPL

[6] = target: T5, PTPN11-NC tandem SH2 domains (Homo sapiens, UniProt Q06124); experiment: FP saturation binding assay
T5 sequence (Q06124 6-216 limits assumed): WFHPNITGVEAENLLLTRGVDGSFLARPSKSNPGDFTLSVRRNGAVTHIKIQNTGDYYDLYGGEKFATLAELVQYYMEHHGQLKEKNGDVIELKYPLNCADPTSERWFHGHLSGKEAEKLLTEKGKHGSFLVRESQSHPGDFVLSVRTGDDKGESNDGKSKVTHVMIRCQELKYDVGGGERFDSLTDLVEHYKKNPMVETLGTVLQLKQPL

[7] = target: T6, LCK SH2 domain (Homo sapiens, UniProt P06239); experiment: FP saturation binding assay; settings: protein LCK; high-confidence ErbB interactions; mean of replicate hits
T6 construct: 93 SH2 and 2 PTB domain-containing constructs; 6X His; thioredoxin; made in house; host or cells: E. coli BL21(DE3)pLysS
T6 sequence (P06239 127-224 limits assumed): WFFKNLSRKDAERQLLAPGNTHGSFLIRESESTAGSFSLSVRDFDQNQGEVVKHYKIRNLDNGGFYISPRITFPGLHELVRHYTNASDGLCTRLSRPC
How it was run: (§1)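 Rhodamine-labeled phosphopeptides (10 nM final) titrated with SH2 domain protein (0.002–10 µM, 12 points) in 20 mM HEPES, 100 mM KCl, 0.1% Tween-20, 5 mM DTT, pH 7.8; 20 min, room temperature, dark. FP read at 530/555 nm; KD fitted by nonlinear regression after thioredoxin background correction and outlier removal.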

[8] = target: T7, PTK6 SH2 domain (Homo sapiens, UniProt Q13882); experiment: FP saturation binding assay; settings: protein PTK6; high-confidence ErbB interactions; mean of replicate hits
T7 construct: from the PTK6 SH2 domain; 6X His; thioredoxin; made in house; host or cells: E. coli BL21(DE3)pLysS
T7 sequence (Q13882 78-170 limits assumed): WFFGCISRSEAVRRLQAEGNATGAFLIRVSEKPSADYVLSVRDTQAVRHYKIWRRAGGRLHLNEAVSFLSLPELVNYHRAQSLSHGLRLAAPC
How it was run: as §1

[9] = target: T8, PIK3R3-C SH2 domain (Homo sapiens, UniProt Q92569); experiment: biochemical; format: binding; settings: protein PIK3R3-C; high-confidence ErbB interactions; mean of replicate hits
T8 construct: thioredoxin; made in house; host or cells: E. coli BL21(DE3)pLysS

[10] = target: T9, RASA1-N SH2 domain (Homo sapiens, UniProt P20936); experiment: FP saturation binding assay
T9 sequence (P20936 181-272 limits assumed): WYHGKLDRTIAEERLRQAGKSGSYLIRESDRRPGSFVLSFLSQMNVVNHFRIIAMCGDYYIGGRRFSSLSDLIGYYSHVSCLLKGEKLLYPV

[11] = target: SH2 and PTB domains; settings: ref Jones et al. 2006 / Kaushansky et al. Mol Biosys 2008 / Kaushansky et al. Chem and Biol 2008, cited from earlier work
From the text: Supplement pone.0044471.s022.xlsx, sheet "Most recent PM interactions" | column: Kd || Supplement pone.0044471.s022.xlsx, sheet "All original PM interactions" | column: Kd

Row | Molecule | pKd [1] | share of the ErbB1 binding FE for GRAP2 [2] | pKd ([11]; protein ABL2) | pKd ([11]; protein GRB2) | pKd ([11]; protein ITK) | pKd ([11]; protein NCK2) | pKd ([11]; protein PIK3R1-NC) | pKd ([11]; protein PIK3R2-N) | pKd ([11]; protein PIK3R2-NC) | pKd ([11]; protein PIK3R3-N) | pKd ([11]; protein PIK3R3-NC) | pKd ([11]; protein RASA1-N) | pKd ([11]; protein VAV2) | share of the ErbB1 binding FE for GRB2 [3] | further results
1 | CC(C)C[C@H](NC(=O)[C@@H]1CCCN1)C(=O)N[C@H](C(=O)N[C@@H](CS)C(=O)N[C@@H](CO)C(=O)N1CCC[C@H]1C(=O)N[C@@H](CCC(N)=O)C(=O)N1CCC[C@H]1C(=O)N[C@@H](CCC(=O)O)C(=O)N[C@@H](Cc1ccc(OP(=O)(O)O)cc1)C(=O)N[C@H](C(=O)N[C@@H](CC(N)=O)C(=O)N[C@@H](CCC(N)=O)C(=O)N1CCC[C@H]1C(=O)N[C@@H](CC(=O)O)C(=O)N[C@H](C(=O)N[C@@H](CCCNC(=N)N)C(=O)N[C@@H](CC(=O)O)C(=O)O)C(C)C)C(C)C)[C@@H](C)O [ErbB2 1139 18-mer] (HELM PEPTIDE1{P.L.T.C.S.P.Q.P.E.[O=C([C@H](Cc1ccc(OP(=O)(O)O)cc1)N[*:1])[*:2]].V.N.Q.P.D.V.R.D}$$$$V2.0) | 5.55 |  |  |  |  |  |  |  |  |  |  |  |  |  | pKd [2]: 6.25; pKd [3]: 5.86
2 | CC[C@H](C)[C@H](NC(=O)[C@@H]1CCCN1C(=O)[C@@H](NC(=O)[C@H](CCCCN)NC(=O)[C@H](C)NC(=O)[C@H](CCC(=O)O)NC(=O)[C@H](CO)NC(=O)[C@H](Cc1ccc(OP(=O)(O)O)cc1)NC(=O)[C@H](CC(C)C)NC(=O)[C@H](CC(C)C)NC(=O)[C@H](CCC(N)=O)NC(=O)[C@@H](N)CCCCN)[C@@H](C)O)C(=O)N[C@@H](CC(=O)O)C(=O)O [ErbB3 868 13-mer] (HELM PEPTIDE1{K.Q.L.L.[O=C([C@H](Cc1ccc(OP(=O)(O)O)cc1)N[*:1])[*:2]].S.E.A.K.T.P.I.D}$$$$V2.0) |  |  |  |  |  |  |  |  |  |  |  |  |  |  | pKd [4]: 5.30; pKd [5]: 5.44; pKd [6]: 5.43
3 | CC(C)C[C@H](NC(=O)[C@H](CO)NC(=O)[C@H](Cc1c[nH]cn1)NC(=O)[C@H](CC(N)=O)NC(=O)[C@H](Cc1c[nH]c2ccccc12)NC(=O)[C@H](Cc1ccc(OP(=O)(O)O)cc1)NC(=O)[C@H](CC(=O)O)NC(=O)[C@@H]1CCCN1C(=O)[C@H](CC(N)=O)NC(=O)[C@@H](N)CC(=O)O)C(=O)N1CCC[C@H]1C(=O)N1CCC[C@H]1C(=O)N[C@@H](CC(=O)O)C(=O)O [ErbB4 1242 13-mer] (HELM PEPTIDE1{D.N.P.D.[O=C([C@H](Cc1ccc(OP(=O)(O)O)cc1)N[*:1])[*:2]].W.N.H.S.L.P.P.D}$$$$V2.0) | 5.13 |  |  |  |  |  |  |  |  |  |  |  |  |  | pKd [7]: 5.35; pKd [8]: 5.56; pKd [9]: 5.08; pKd [10]: 5.30
4 | GNPEpYLNTVQPTd [ErbB1 pY1138] |  | 50% | 7.07 | 6.14 | 5.75 | 6.48 | 5.80 | 6.12 | 6.07 | 6.08 | 5.77 | 6.41 | 6.43 | 50% | pKd ([11]; protein SHC1-PTB): 6.89; pKd ([11]; protein ZAP70-NC): 5.94
5 | PVPEpYINQSVPKd [ErbB1 pY1092] |  | 50% | 6.82 | 6.70 | 6.66 | 5.96 | 6.17 | 6.35 | 5.85 | 6.29 | 5.99 | 6.74 | 6.27 | 50% | pKd ([11]; protein ABL1): 6.04; pKd ([11]; protein BLK): 6.52; pKd ([11]; protein GRB10): 5.89; pKd ([11]; protein PIK3R1-N): 5.97; pKd ([11]; protein PLCG2-NC): 5.79; pKd ([11]; protein SRC): 5.75; pKd ([11]; protein SYK-C): 5.72; pKd ([11]; protein SYK-NC): 6.04; pKd ([11]; protein YES1): 6.47
